Results from patent publication US4226610A, “Herbicidal compounds, preparation thereof and herbicides containing the same” (Meiji Selka Kaisha, Ltd., priority 1978, dated 1980).

Tests used:
yamazakura = test: Experiment 3 foliar application to naturally growing shrubs; type: in vivo, Prunus donarium Sieb. var. spontanae Makino; conditions: after 3 months
Summary of the method: (§1)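 Sprays contained 0.1% octylphenyl polyoxyethanol and compound diluted to prescribed concentrations. They were applied to the leaves of wild shrubs at a rate of 150 liter per 10 are. Damage was rated 0–5 after one and three months, and regrowth − to +++ after three months.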

hedge bindweed = test: Experiment 1 foliar application to naturally growing weeds; type: in vivo, Calystegis hederacea Wall.; conditions: 4 months
Summary of the method: (§2)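 Read-outs were a 0–5 killing index at 21 days and a reproduction score from (-), no reproduction, to (+++), no suppression. Reproduction was read at 2 months for cockspar grass and 4 months for the other species, after foliar spraying at 150 liter per 10 are with 0.1% surfactant.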

stonewort = test: Experiment 7 application to water; type: in vivo, Chara Braunii Gmel.; parameters: scale not given here
Excerpt: (§3) A black soil was packed in 50 cm. square concrete pots and water was poured there-onto at 50 cm. in depth. Hornwort (Ceratophyllum demersum L.), stonewort (Chara Braunii Gmel.) and salvinia (Salvinia natans All.) were transplanted and pond scum (Spirogira crassa Kutz) and diatoms (Bacillariophyta) were floated in the water.
(§4) Then, the compounds of the invention were applied dropwise onto the surface of the water so that the prescribed concentrations in the water are obtained as indicated in Table 9.

aginashi = test: Experiment 6 spray on aquatic plants in concrete pots; type: in vivo, Sagittaria Aginashi Makino; conditions: 3 months
Excerpt: (§5) The detail of the assessment made in the following Experiments of the invention was as follows:
(§6) Four months after treatment, evaluation was made for inhibition of reproduction expressed in terms of symbols ranging from (-) to (+++) where (-) means no reproduction, namely complete suppression of reproduction, (±) remarkable suppression of reproduction; (+) considerable suppression of reproduction; (++) medium supprestion of reproduction; and (+++) no suppression of reproduction.
(§7) A paddy field soil was packed in 50 cm. square concrete pots. omodaka (Sagittaria trifolia L.), urikawa (Sagittaria pygmaea Miq.), prog-bit (Hydrocharis dubia) and aginashi (Sagittaria Aginashi Makino) were transplanted; then water was poured onto the soil at 5 cm. depth.
(§8) Further, water hyacinth, greater-duckweed (Spirodela polyrhiza Schleid.) and duckweed (Lemna paucicostata Hegelm) were floated on the water.
(§9) After one month, the compounds of the invention diluted to the prescribed concentrations as indicated in Table 8 were sprayed in an amount of 100 liter per 10 are. As a surfactant, 0.1% of octylphenyl polyoxyethanol was added thereto.
(§10) The killing index (0, no effect; 5, death) after 21 days and 3 months and the reproduction-inhibiting effect (-, no reproduction; +++, maximum reproduction) after 3 months were determined.

diatoms = test: Experiment 7 application to water; type: in vivo, Bacillariophyta; parameters: key: 0: no effect; 5: perfect control
Excerpt: as §3, §4

hornwort = test: Experiment 7 application to water; type: in vivo, Ceratophyllum demersum L.; parameters: scale not given here
Excerpt: as §3, §4

cockspar grass = test: Experiment 1 foliar application to naturally growing weeds; type: in vivo, Echinochloa Crusgalli P. Beauv.; conditions: for Reproduction-inhibiting effect: 2 months
Summary of the method: (§11)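 Naturally growing weeds receive a foliar spray of compound at prescribed concentrations, 150 liter per 10 are, containing 0.1% octylphenyl polyoxyethanol. Kill is rated 0 (no effect) to 5 (death) after 21 days. Regrowth is rated (-) to (+++) after 4 months, or 2 months for cockspar grass.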

duckweed = test: Experiment 6 spray on aquatic plants in concrete pots; type: in vivo, Lemna paucicostata Hegelm; conditions: for Reproduction-inhibiting effect: 3 months
Excerpt: as §5, §6, §7, §8, §9, §10

yabugarashi = test: Experiment 1 foliar application to naturally growing weeds; type: in vivo, Cayratia japonica Houtt.; conditions: for Reproduction-inhibiting effect: 4 months
Summary of the method: as §2

water hyacinth = test: Experiment 6 spray on aquatic plants in concrete pots; type: in vivo, Eichhornia crassipes Solms; conditions: for Reproduction-inhibiting effect: 3 months
Excerpt: as §5, §6, §7, §8, §9, §10

manna grass = test: Experiment 1 foliar application to naturally growing weeds; type: in vivo, Digitaria adsceudes Henr.; conditions: for Reproduction-inhibiting effect: 2 months
Summary of the method: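 Dilute compounds to prescribed concentrations; add 0.1% octylphenyl polyoxyethanol; spray foliage of in-situ weeds at 150 liter per 10 are. Score killing 0–5 on day 21. Score reproduction (-) to (+++) at month 2 (cockspar grass) or month 4 (chigaya, azumanezasa, warunasubi).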

salvinia = test: Experiment 7 application to water; type: in vivo, Salvinia natans Allioni; parameters: scale not given here
Excerpt: as §3, §4

torch azalea = test: Experiment 3 foliar application to naturally growing shrubs; type: in vivo, Rhododendoron Kaempferi Planch.; conditions: for Reproduction-inhibiting: after 3 months
Summary of the method: as §1

progbit = test: Experiment 6 spray on aquatic plants in concrete pots; type: in vivo, Hydrocharis dubia; conditions: 3 months
Excerpt: as §5, §6, §7, §8, §9, §10

azumanezasa = test: Experiment 1 foliar application to naturally growing weeds; type: in vivo, Pleioblastus Chino Makino; conditions: 4 months
Summary of the method: as §11

Japanese bush cranberry = test: Experiment 3 foliar application to naturally growing shrubs; type: in vivo, Viburnum dilatatum Thunb.; conditions: after 3 months
Summary of the method: as §1

white clover = test: Experiment 1 foliar application to naturally growing weeds; type: in vivo, Trifolium repens L.; conditions: 4 months
Summary of the method: as §2

kiichigo = test: Experiment 3 foliar application to naturally growing shrubs; type: in vivo, Rubus palmatsu Thunb. forma coptophyllus Makino; conditions: for Reproduction-inhibiting: after 3 months
Summary of the method: as §1

In the case of `C[C@H](NC(=O)[C@H](C)NC(=O)[C@@H](N)CCP(C)(=O)O)C(=O)O` [SF-1293 choline, (L-2-Amino-4-methylphosphinobutyryl)-L-alanyl-L-alanine choline], the Reproduction-inhibiting (yamazakura; 0.05%) is reported as “++”, the Reproduction-inhibiting (yamazakura; 0.1%) is reported as “-” and the Reproduction-inhibiting (yamazakura; 0.2%) is reported as “-”. The Reproduction-inhibiting effect (hedge bindweed; 0.05%) was “+”, the Reproduction-inhibiting effect (hedge bindweed; 0.1%) was “±” and the Reproduction-inhibiting effect (hedge bindweed; 0.2%) was “-”. It also gave a controlling effect (stonewort; 1 ppm, 3 months) of 2, a controlling effect (stonewort; 1 ppm, 21 days) of 3 and a controlling effect (stonewort; 3 ppm, 3 months) of 5. For the same compound, the controlling effect (stonewort; 3 ppm, 21 days) was 4, the controlling effect (stonewort; 10 ppm, 3 months) was 5 and the controlling effect (stonewort; 10 ppm, 21 days) was 5. For the same compound, the Reproduction-inhibiting effect (aginashi; 0.05%) was “++”, the Reproduction-inhibiting effect (aginashi; 0.1%) was “±” and the Reproduction-inhibiting effect (aginashi; 0.2%) was “-”. For the same compound, the controlling effect (diatoms; 1 ppm, 3 months) was 1, the controlling effect (diatoms; 1 ppm, 21 days) was 2 and the controlling effect (diatoms; 3 ppm, 3 months) was 5. For the same compound, the controlling effect (diatoms; 3 ppm, 21 days) was 3, the controlling effect (diatoms; 10 ppm, 3 months) was 5 and the controlling effect (diatoms; 10 ppm, 21 days) was 5. The controlling effect (hornwort; 1 ppm, 3 months) was 1, the controlling effect (hornwort; 1 ppm, 21 days) was 2 and the controlling effect (hornwort; 3 ppm, 3 months) was 5. The controlling effect (hornwort; 3 ppm, 21 days) was 4, the controlling effect (hornwort; 10 ppm, 3 months) was 5 and the controlling effect (hornwort; 10 ppm, 21 days) was 5. The Reproduction-inhibiting effect (cockspar grass; 0.05%) was “+”, the Reproduction-inhibiting effect (cockspar grass; 0.1%) was “±” and the “Killing index of Upperground parts” value (cockspar grass; 0.1%, 21 days) was 4.5. For the same compound, the Reproduction-inhibiting effect (cockspar grass; 0.2%) was “-”, the Reproduction-inhibiting effect (duckweed; 0.05%) was “+” and the Reproduction-inhibiting effect (duckweed; 0.1%) was “-”. For the same compound, the Killing index (duckweed; 0.1%, 21 days) was 4.5, the Reproduction-inhibiting effect (duckweed; 0.2%) was “-” and the Reproduction-inhibiting effect (yabugarashi; 0.05%) was “++”. The “Killing index of Upperground parts” value (yabugarashi; 0.05%, 21 days) was 3.5, the Reproduction-inhibiting effect (yabugarashi; 0.1%) was “±” and the Reproduction-inhibiting effect (yabugarashi; 0.2%) was “-”. For the same compound, the Reproduction-inhibiting effect (water hyacinth; 0.05%) was “++”, the Reproduction-inhibiting effect (water hyacinth; 0.1%) was “-” and the Killing index (water hyacinth; 0.1%, 21 days) was 4.5. For the same compound, the Reproduction-inhibiting effect (water hyacinth; 0.2%) was “-”, the Reproduction-inhibiting effect (manna grass; 0.05%) was “+” and the Reproduction-inhibiting effect (manna grass; 0.1%) was “±”. The “Killing index of Upperground parts” value (manna grass; 0.1%, 21 days) was 4.5, the Reproduction-inhibiting effect (manna grass; 0.2%) was “-” and the controlling effect (salvinia; 1 ppm, 3 months) was 3. The controlling effect (salvinia; 1 ppm, 21 days) was 3.5, the controlling effect (salvinia; 3 ppm, 3 months) was 5 and the controlling effect (salvinia; 3 ppm, 21 days) was 4.5. The controlling effect (salvinia; 10 ppm, 3 months) was 5, the controlling effect (salvinia; 10 ppm, 21 days) was 5 and the Reproduction-inhibiting (torch azalea; 0.05%) was “++”. For the same compound, the Reproduction-inhibiting (torch azalea; 0.1%) was “-”, the Killing index (torch azalea; 0.1%, after 30 days) was 4.5 and the Reproduction-inhibiting (torch azalea; 0.2%) was “-”. The Reproduction-inhibiting effect (progbit; 0.05%) was “++”, the Reproduction-inhibiting effect (progbit; 0.1%) was “±” and the Reproduction-inhibiting effect (progbit; 0.2%) was “-”. For the same compound, the Reproduction-inhibiting effect (azumanezasa; 0.05%) was “+”, the Reproduction-inhibiting effect (azumanezasa; 0.1%) was “-” and the Reproduction-inhibiting effect (azumanezasa; 0.2%) was “-”. The Reproduction-inhibiting (Japanese bush cranberry; 0.05%) was “++”, the Reproduction-inhibiting (Japanese bush cranberry; 0.1%) was “-” and the Reproduction-inhibiting (Japanese bush cranberry; 0.2%) was “-”. The Reproduction-inhibiting effect (white clover; 0.05%) was “+”, the Reproduction-inhibiting effect (white clover; 0.1%) was “-” and the Reproduction-inhibiting effect (white clover; 0.2%) was “-”. For the same compound, the Reproduction-inhibiting (kiichigo; 0.05%) was “++”, the Reproduction-inhibiting (kiichigo; 0.1%) was “-” and the Reproduction-inhibiting (kiichigo; 0.2%) was “-”.

With `CP(=O)(O)CC[C@H](N)C(=O)O` [L-AMPB choline, L-2-Amino-4-methylphosphino-butanoic acid choline] the Reproduction-inhibiting (yamazakura; 0.05%) was “-”, the Reproduction-inhibiting (yamazakura; 0.1%) was “-” and the Reproduction-inhibiting (yamazakura; 0.2%) was “-”. The Reproduction-inhibiting effect (hedge bindweed; 0.05%) was “±”, the Reproduction-inhibiting effect (hedge bindweed; 0.1%) was “-” and the Reproduction-inhibiting effect (hedge bindweed; 0.2%) was “-”. It also gave a controlling effect (stonewort; 1 ppm, 3 months) of 5, a controlling effect (stonewort; 1 ppm, 21 days) of 4 and a controlling effect (stonewort; 3 ppm, 3 months) of 5. For the same compound, the controlling effect (stonewort; 3 ppm, 21 days) was 5, the controlling effect (stonewort; 10 ppm, 3 months) was 5 and the controlling effect (stonewort; 10 ppm, 21 days) was 5. For the same compound, the Reproduction-inhibiting effect (aginashi; 0.05%) was “±”, the Reproduction-inhibiting effect (aginashi; 0.1%) was “-” and the Reproduction-inhibiting effect (aginashi; 0.2%) was “-”. It also gave a controlling effect (diatoms; 1 ppm, 3 months) of 4, a controlling effect (diatoms; 1 ppm, 21 days) of 4 and a controlling effect (diatoms; 3 ppm, 3 months) of 5. For the same compound, the controlling effect (diatoms; 3 ppm, 21 days) was 5, the controlling effect (diatoms; 10 ppm, 3 months) was 5 and the controlling effect (diatoms; 10 ppm, 21 days) was 5. It also gave a controlling effect (hornwort; 1 ppm, 3 months) of 2, a controlling effect (hornwort; 1 ppm, 21 days) of 3 and a controlling effect (hornwort; 3 ppm, 3 months) of 5. The controlling effect (hornwort; 3 ppm, 21 days) was 5, the controlling effect (hornwort; 10 ppm, 3 months) was 5 and the controlling effect (hornwort; 10 ppm, 21 days) was 5. For the same compound, the Reproduction-inhibiting effect (cockspar grass; 0.05%) was “±”, the Reproduction-inhibiting effect (cockspar grass; 0.1%) was “-” and the Reproduction-inhibiting effect (cockspar grass; 0.2%) was “-”. The Reproduction-inhibiting effect (duckweed; 0.05%) was “-”, the Reproduction-inhibiting effect (duckweed; 0.1%) was “-” and the Reproduction-inhibiting effect (duckweed; 0.2%) was “-”. The Reproduction-inhibiting effect (yabugarashi; 0.05%) was “±”, the Reproduction-inhibiting effect (yabugarashi; 0.1%) was “-” and the Reproduction-inhibiting effect (yabugarashi; 0.2%) was “-”. The Reproduction-inhibiting effect (water hyacinth; 0.05%) was “++”, the Reproduction-inhibiting effect (water hyacinth; 0.1%) was “-” and the Reproduction-inhibiting effect (water hyacinth; 0.2%) was “-”. For the same compound, the Reproduction-inhibiting effect (manna grass; 0.05%) was “±”, the Reproduction-inhibiting effect (manna grass; 0.1%) was “-” and the Reproduction-inhibiting effect (manna grass; 0.2%) was “-”. It also gave a controlling effect (salvinia; 1 ppm, 3 months) of 5, a controlling effect (salvinia; 1 ppm, 21 days) of 4 and a controlling effect (salvinia; 3 ppm, 3 months) of 5. For the same compound, the controlling effect (salvinia; 3 ppm, 21 days) was 5, the controlling effect (salvinia; 10 ppm, 3 months) was 5 and the controlling effect (salvinia; 10 ppm, 21 days) was 5. The Reproduction-inhibiting (torch azalea; 0.05%) was “-”, the Reproduction-inhibiting (torch azalea; 0.1%) was “-” and the Reproduction-inhibiting (torch azalea; 0.2%) was “-”. The Reproduction-inhibiting effect (progbit; 0.05%) was “+”, the Reproduction-inhibiting effect (progbit; 0.1%) was “-” and the Reproduction-inhibiting effect (progbit; 0.2%) was “-”. The Reproduction-inhibiting effect (azumanezasa; 0.05%) was “±”, the Reproduction-inhibiting effect (azumanezasa; 0.1%) was “-” and the Reproduction-inhibiting effect (azumanezasa; 0.2%) was “-”. For the same compound, the Reproduction-inhibiting (Japanese bush cranberry; 0.05%) was “+”, the Reproduction-inhibiting (Japanese bush cranberry; 0.1%) was “-” and the Reproduction-inhibiting (Japanese bush cranberry; 0.2%) was “-”. The Reproduction-inhibiting effect (white clover; 0.05%) was “±”, the Reproduction-inhibiting effect (white clover; 0.1%) was “-” and the Reproduction-inhibiting effect (white clover; 0.2%) was “-”. The Reproduction-inhibiting (kiichigo; 0.05%) was “-”, the Killing index (kiichigo; 0.05%, after 30 days) was 4.5 and the Reproduction-inhibiting (kiichigo; 0.1%) was “-”. The Reproduction-inhibiting (kiichigo; 0.2%) was “-”.
